Experimental data from patent publication US20080207614A1, “QUINAZOLINE DERIVATIVES FOR THE TREATMENT AND PREVENTION OF DIABETES AND OBESITY” (SK CHEMICALS CO., LTD., priority 2004, published 2008).

What was measured:
AMPK = experiment: Measurement of AMPK activity by Western blot in C2C12 cells; format: cell-based; design: key to AMPK activity (degree of phosphorylation of serine-79 and threonine-172): fold increase in threonine-172 phosphorylation; details: 10 μM for 50 minutes; for AMPK activity (degree of phosphorylation of serine-79 and threonine-172): no superscript: Western blot of serine-79 and threonine-172 phosphorylation; for AMPK activity (class: degree of phosphorylation of threonine-172): strong/mild/weak
Method in brief: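 Western blot readout of AMPK Thr-172 and ACC Ser-79 phosphorylation, normalised against ERK, served as the activity measure. Cells were C2C12 after differentiation, treated 50 minutes with 10 μM test material. Grading by Thr-172 increase: ≥3-fold strong, 1-3-fold mild, <1-fold weak.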

C2C12 muscle cells = experiment: Analysis of glucose absorption (2-deoxyglucose) in differentiated C2C12 muscle cells; format: cell-based; details: test materials 10 μM, times relative to control group
Method in brief: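 Uptake of 0.2 μCi 2-deoxyglucose over 20 min, counted radiometrically in lysed cells. Before tracer, compounds (10 μM) were applied for 30 min to C2C12 cells differentiated 6 days in 1% serum and equilibrated 3 h in 5 mM glucose KRB.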

Structure (SMILES)	AMPK activity (degree of phosphorylation of serine-79 and threonine-172) (AMPK)	AMPK activity (class: degree of phosphorylation of threonine-172) (AMPK)	Glucose absorption (C2C12 muscle cells)
c1ccc(-c2nc(NCCN3CCOCC3)c3ccccc3n2)cc1 [Compound 106, (2-Morpholino-4-ylethyl)-(2-phenylquinazolino-4-yl)-amine]	1.3	mild (“mild” means that the degree of phosphorylation of threonine-172 increased by 1 to 3 times)	1.8
CCCNc1nc(-c2ccccc2)nc2ccccc12 [Compound 61, (2-Phenylquinazolino-4-yl)-propylamine]	–	weak (“weak” means that the degree of phosphorylation of threonine-172 increased by less than 1 time)	1.9
COc1ccc(CNc2nc(C3CC3)nc3ccccc23)cc1OC [Compound 388, (2-Cyclopropylquinazolino-4-yl)-(3,4-dimethoxybenzyl)-amine]	2.8	–	1.2
CC(C)(C)c1nc(NCc2ccccc2)c2ccccc2n1 [Compound 187, Benzyl-(2-tert-butylquinazolino-4-yl)-amine]	0.7	mild (“mild” means that the degree of phosphorylation of threonine-172 increased by 1 to 3 times)	2.4
